Data: US20210145838A1, “SELECTIVE PDE4D INHIBITORS AGAINST DEMYELINATING DISEASES” (Universiteit Hasselt, priority 2018, published 2021)

Assays:
[1] = tested on: demyelinated cerebellar brain slices; experiment: Ex vivo (re)myelination in lysolecithin-demyelinated cerebellar brain slices; format: cell-based, mouse; details: 14-days treatment, vs vehicle
Method: FIG. 6: Inhibition of PDE4 by roflumilast induces (re)myelination in demyelinated brain slices. Mouse brain slices ([…]) were trimmed from the cerebellum of p10 C57bl6 pups. After 1 week in culture, brain slices were demyelinated using lysolecithin (16 h) and subsequently treated for 14 days with 5 μM roflumilast or vehicle (0.1% DMSO). Treatment was repeated every 2 days with a 60% medium replenishment. Brain slices were fixated using 4% paraformaldehyde and stained for MBP, neurofilament and counterstained with the nuclear DAPI dye. Three slices per animal were quantified for % myelinated axons (n:2/group).
FIG. 7: Inhibition of PDE4D by gebr32a induces (re)myelination in demyelinated brain slices. Mouse brain slices (370 μM) were trimmed from the cerebellum of p10 C57bl6 pups. […] Three slices per animal were quantified for % myelinated axons (n:2/group). […]
Organotypic cerebellar brain slices were fixed in 4% paraformaldehyde at room temperature for 40 minutes and incubated with primary antibodies diluted in blocking buffer (5% bovine serum albumin (BSA) and 0.05% Tween 20 in PBS) for 4 h at room temperature. […] Quantification was done using Fiji ImageJ by counting the percentage of myelinated axons crossing a predefined cross-sectional path.

[2] = tested on: cuprizone demyelinated mice; experiment: Object location task (spatial memory) in cuprizone-demyelinated mice; format: in vivo, mouse; details: for Spatial discrimination index (d2), object location task: day 45 and 47; for Spatial memory in the object location task (D2): day 47, 3 h inter-trial-interval
Text: FIG. 11: Inhibition of PDE4 by roflumilast improves spatial memory upon cuprizone-induced demyelination—a functional measure for remyelination. Forty-two nine-weeks-old male C57bl6 mice were trained for the object location task (OLT) as described previously (Sierksma et al. 2014) (day −14−0). Subsequently, three groups were fed a 0.3% cuprizone diet for 6 weeks to induce demyelination while the control group received a regular chow diet (day 0-42). From day 40 till day 49, control (n=10) and vehicle (n=10) treated animals received a s.c. injection with a 1% DMSO in 0.5% methylcellulose solution or roflumilast (roflu 1 mg/kg (n=11) or roflu 3 mg/kg (n=11) in vehicle) twice a day. All animals were sacrificed at day 49 (A). During the last phase of the cuprizone treatment (demyelination), the OLT was performed at the 3 h inter-trial-interval at day 39.
Next, the OLT was performed during remyelination following cuprizone withdrawal, respectively at 47. […] A one sample t-test was performed to test for spatial memory (e.g. D2≠0*p<0.05; **p<0.01; ***p<0.001). […] All mice not reaching an exploration time of 4 s in either of two trials were excluded from analyses. Extreme values were excluded by means of Dixon's principles of exclusion of extreme values.
FIG. 14: Inhibition of PDE4D by Gebr32a improves spatial memory upon cuprizone-induced demyelination—a functional measure for remyelination. Eighty-eight nine-weeks-old male C57bl6 mice were trained for the object location task (OLT; n=22 per group) as described previously (Sierksma et al. 2014) (day −14−0). Subsequently, three groups were fed a 0.3% cuprizone diet for 6 weeks to induce demyelination while the control group received a regular chow diet (day 0-42). From day 40 till day 49, control and vehicle treated animals received a s.c. injection with a 1% DMSO in 0.5% methylcellulose solution or gebr32a (0.1 mg/kg or 0.3 mg/kg in vehicle) twice a day. All animals were sacrificed at day 49 (A).
Next, the OLT was performed during remyelination following cuprizone withdrawal, respectively at day 45 and 47.
A one sample t-test was performed to test for spatial memory (e.g. D2=/0; *p<0.05; **p<0.01; ***p<0.001). A one-way ANOVA with a Tukey's multiple comparison test was performed. All mice not reaching an exploration time of 4 s in either of two trials were excluded from analyses. Extreme values were calculated and excluded by means of Dixon's principles of exclusion of extreme values.
At the start of the experiment, all animals were phenotyped for baseline cognitive performance in the object location task. Afterwards, 4 groups were defined (n1=13, n2=16, n3=11, n4=11) and group 2, 3 and 4 were subjected to a 0.3% w/w cuprizone diet (Bis(cyclohexanone)-oxaldihydrazone) (Sigma-Aldrich, United States) for 42 days. […]

SMILES | MBP alignment with neurofilament (% myelinated axons) ([1]; 0.5 μM) | Spatial discrimination index (d2), object location task ([2]; 0.1 mg/kg s.c. twice a day) | Spatial discrimination index (d2), object location task ([2]; 0.3 mg/kg s.c. twice a day) | MBP alignment with neurofilament (% myelinated axons) ([1]; 5 μM) | Spatial memory in the object location task (D2) ([2]; 1 mg/kg s.c. twice a day) | Spatial memory in the object location task (D2) ([2]; 3 mg/kg s.c. twice a day)
OC(CN1CCOCC1)Cn1ccc(-c2ccc(OC(F)F)c(OC3CCCC3)c2)n1 (stereo not drawn) [Gebr32a] | four-fold increase | restored the spatial discrimination index (d2) to a level comparable to that of the control animals | restored the spatial discrimination index (d2) to a level comparable to that of the control animals |  |  | 
O=C(Nc1c(Cl)cncc1Cl)c1ccc(OC(F)F)c(OCC2CC2)c1 [roflumilast] |  |  |  | four-fold increase | did not show a recovery of the spatial memory | significant recovery of spatial memory
